US20120226031A1, “PALMARUMYCIN BASED INHIBITORS OF THIOREDOXIN AND METHODS OF USING SAME” (ARIZONA BOARD OF REGENTS, ACTING ON BEHALF OF THE …, priority 2005, published 2012)
In brackets after ≈: the same amount, converted by molar mass. Where two headings read alike, the source gives them in different places.

Tests used:
[1] = tested on: MCF-7 human breast cancer cells; experiment: MCF-7 breast cancer cell growth inhibition; assay type: cell-based; conditions: Homo sapiens, MCF7
[2] = biological target: T1, human cytochrome P-450 reductase (Homo sapiens, UniProt P16435); experiment: Inhibition of human cytochrome P-450 reductase (selectivity); assay type: biochemical
T1 sequence (P16435 1-677): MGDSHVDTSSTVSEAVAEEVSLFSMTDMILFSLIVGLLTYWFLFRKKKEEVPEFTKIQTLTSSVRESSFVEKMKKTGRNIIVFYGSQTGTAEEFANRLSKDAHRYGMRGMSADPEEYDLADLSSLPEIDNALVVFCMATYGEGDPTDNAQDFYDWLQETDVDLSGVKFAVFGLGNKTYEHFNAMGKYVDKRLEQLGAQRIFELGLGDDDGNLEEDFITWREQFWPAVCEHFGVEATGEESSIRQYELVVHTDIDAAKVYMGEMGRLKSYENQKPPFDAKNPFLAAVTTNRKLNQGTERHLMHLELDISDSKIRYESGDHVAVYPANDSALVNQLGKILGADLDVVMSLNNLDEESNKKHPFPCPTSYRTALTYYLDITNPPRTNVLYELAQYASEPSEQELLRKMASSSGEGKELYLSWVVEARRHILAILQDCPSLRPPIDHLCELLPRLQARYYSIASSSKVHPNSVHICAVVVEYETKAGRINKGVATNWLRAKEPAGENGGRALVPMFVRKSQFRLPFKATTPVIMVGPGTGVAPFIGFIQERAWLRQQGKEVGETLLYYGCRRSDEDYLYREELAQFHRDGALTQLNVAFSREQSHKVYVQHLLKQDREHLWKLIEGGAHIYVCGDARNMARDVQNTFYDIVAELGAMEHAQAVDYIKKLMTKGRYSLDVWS
Description: (§1) Based upon the observation that PX-916 was rapidly converted to PX-960 in aqueous solution, the ability of PX-960 to inhibit purified human TR was measured and found to be similar to that of PX-916 (Table 2). PX-916 was a selective inhibitor of human TR compared to two other NADPH dependent reductases with a selectivity of at least 200 for human glutathione reductase and human cytochrome P-450 reductase (Table 3).

[3] = biological target: T2, human cytochrome P-450 reductase (versus human thioredoxin reductase, TR) (Homo sapiens, UniProt P16435); experiment: as above; assay type: biochemical; conditions: human
T2 sequence (P16435 1-677): T1 sequence (P16435 1-677)
Description: as §1

[4] = biological target: T3, cellular thioredoxin reductase (Homo sapiens, UniProt Q16881); experiment: Inhibition of cellular thioredoxin reductase in MCF-7 cells grown in 1 μM Se; assay type: cell-based
T3 sequence (Q16881 1-649): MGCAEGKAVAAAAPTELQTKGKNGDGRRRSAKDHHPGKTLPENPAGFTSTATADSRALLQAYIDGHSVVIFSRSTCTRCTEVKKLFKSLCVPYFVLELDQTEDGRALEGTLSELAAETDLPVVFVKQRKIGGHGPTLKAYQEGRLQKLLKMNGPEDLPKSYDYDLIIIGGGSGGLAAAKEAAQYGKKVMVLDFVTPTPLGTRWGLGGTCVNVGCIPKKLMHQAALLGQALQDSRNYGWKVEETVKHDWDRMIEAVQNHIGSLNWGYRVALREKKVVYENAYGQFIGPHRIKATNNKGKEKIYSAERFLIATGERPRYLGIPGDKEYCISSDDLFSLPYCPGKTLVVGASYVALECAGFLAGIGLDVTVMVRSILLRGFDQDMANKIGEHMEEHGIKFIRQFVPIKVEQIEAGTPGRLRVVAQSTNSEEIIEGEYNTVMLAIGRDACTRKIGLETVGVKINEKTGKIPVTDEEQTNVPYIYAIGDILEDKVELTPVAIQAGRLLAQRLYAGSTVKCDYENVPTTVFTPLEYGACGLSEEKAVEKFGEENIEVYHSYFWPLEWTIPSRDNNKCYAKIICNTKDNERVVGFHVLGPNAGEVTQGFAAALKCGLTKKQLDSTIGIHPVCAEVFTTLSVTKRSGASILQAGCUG
Description: FIG. 3. Inhibition of cellular thioredoxin reductase by PX-916. MCF-7 human breast cancer cells grown in medium containing 1 μM Se for 7 days were treated with PX-916 and total cellular thioredoxin reductase activity measured. A. Time course of the inhibition of the thioredoxin reductase on exposure to 1 μM PX-916. […] In both cases values are the mean of 3 separate determinations and bars are S.E. P≦0.04 or **p≦0.01. C. Inhibition of MCF-7 tumor thioredoxin reductase by PX-916. MCF-7 human breast cancer xenografts were grown in female scid mice implanted with 17-β-estradiol 60 day slow-release pellets until they were ˜300 mm^3. The mice were administered a single dose of PX-916 of 25 mg/kg i.v. and tumors harvested at various times. Thioredoxin reductase activity was measured in tumor homogenates. Values are the mean of 3 mice at each time point and bars are SE. **p<0.01 compared to pretreatment value.
Cell growth inhibition of MCF-7 human breast cancer cells by palmarumycin, PX-916 and PX-960 occurred at similar concentration of 1 to 3 μM (Table 2). MCF-7 human breast cancer cells were grown in medium containing 1 μM selenium (Se) for 7 days which increased cellular thioredoxin reductase activity by about 5 fold as previously reported. […] Thus, inhibition of purified human TR, MCF-7 cellular TR and cell growth inhibition of MCF-7 cells by PX-916 occurred at about the same concentrations.

Aqueous solubility = assay type: physicochemical
[5] = Stability in fresh mouse plasma at room temperature; assay type: in vitro ADME
Description: Two metabolite peaks could be seen at 5 minutes, but were undetectable by 30 minutes.

NCC(=O)Oc1ccc2c3c(cccc13)OC1(C=CC(=O)c3c(O)cccc31)O2 (centres unmarked) [PX-916, O-glycyl naphthoquinone spiroketal]
IC50 ([1]; Table 1, read-out: MCF-7 growth inhibition IC50): 3.1 µM | IC50 ([1]; Table 2, read-out: Inhibition of MCF-7 breast cancer cell growth IC50): 3.1 µM | IC50 ([1]; read-out: IC50 MCF-7 cell growth): 3.1 µM | concentration increase needed to inhibit cytochrome P-450 reductase [2]: greater than 100 fold | IC50 ([2]; Table 3, read-out: Inhibition IC50, cytochrome P-450 reductase (recombinant)): 29.2 µM | selectivity ratio ([3]; Table 3, read-out: Selectivity for TR vs cytochrome P-450 reductase): 104 | selectivity ratio ([3]; read-out: selectivity for human TR vs human cytochrome P-450 reductase): ≥ 200 | time of maximum inhibition of cellular TR ([4]; MCF-7 cells exposed to 1 μM): 24 h | concentration of maximum inhibition of cellular TR ([4]; MCF-7 cells, 17 hours exposure): 0.5 µM | apparent maximum solubility in water (Aqueous solubility): around 10 mg | improvement of aqueous solubility vs PX-960 (Aqueous solubility): 1-2 orders of magnitude | solubility (Aqueous solubility; 20% β-cyclodextrin, aqueous with cosolvent or surfactant or cyclodextrin, read-out: solubility with 20% β-cyclodextrin): 2000 µg/mL (≈ 5.14 mM) | solubility (Aqueous solubility; water, read-out: water solubility): 700 µg/mL (≈ 1.8 mM) | half-life [5]: < 2 min
